Results reported in article PMC3871601, “Potential Cooperations between Odorant-Binding Proteins of the Scarab Beetle Holotrichia oblita Faldermann (Coleoptera: Scarabaeidae)” (PLoS ONE, 2013).
Like-named read-outs stand apart in the source and are kept apart here.

Key:
HoblOBP3 = HoblOBP3 (Holotrichia oblita, UniProt G9BWQ7); assay: biochemical; assay type: binding
Method: (§1) N-phenyl-1-naphthylamine (1-NPN) was selected as a probe to measure the affinity of the 1-NPN fluorescent ligand to proteins. A 1-cm light path quartz cuvette was used, and the fluorescence spectra were recorded on a Lengguang 970 CRT spectrofluorimeter (Shanghai Jingmi, China) at room temperature in a right angle configuration. The parameter selection was such that the slit widths for both excitation and emission were 10 nm. 1-NPN was excited at 337 nm and the emission spectra were recorded between 350 and 550 nm. Spectra were recorded using high-speed scanning.
(§2) The 2 µM protein solution was dissolved in 50 mM Tris-HCl buffer with pH 7.4, and the ligands were dissolved in chromatographically pure methanol as a 1 mM stock solution. 1-NPN was dissolved in chromatographically pure methanol as a 1 mM stock solution.
(§3) To determine the dissociation constants, the intensity values corresponding to the maximum fluorescence emission were plotted against free ligand concentrations. Assuming that the protein was 100% active and that the stoichiometric ratio between the protein and ligand was 1:1 at saturation, the bound ligand was determined from the fluorescence intensity values. The curves were then linearized using Scatchard plots. The K1-NPN values were estimated using GraphPad Prism 5 Software by nonlinear regression for a unique binding site. The dissociation constants of the competitors (Ki) were calculated from the corresponding IC50 values using the following equation: Ki = [IC50]/1+[1-NPN]/K1-NPN. […] [1-NPN] represented the free concentration of 1-NPN, and K1-NPN represented the dissociation constant of the complex protein/1-NPN [76].

HoblOBP4 = HoblOBP4 (Holotrichia oblita, UniProt G9BWQ8); assay: biochemical; assay type: binding
Method: as §1, §2, §3

[1] = pH 7.4, HoblOBP3, at the ligand concentration 24 µM, protein and 1-NPN both 2 µM, read-out: Int (fluorescence intensity as percent of the initial fluorescence)
[2] = pH 7.4, HoblOBP4, at the ligand concentration 24 µM, protein and 1-NPN both 2 µM, read-out: Int (fluorescence intensity as percent of the initial fluorescence)
[3] = HoblOBP3, dash = IC50 exceeded 50 µM, read-out: IC50 (dash)
[4] = HoblOBP3, dash = ligand whose IC50 exceeded 50 µM, Ki not given, read-out: Ki (dash)
[5] = HoblOBP4, calculated from IC50 and K1-NPN, read-out: Ki
[6] = HoblOBP4, protein and 1-NPN both 2 µM, ligand titrated 2–50 µM, read-out: IC50 (concentration of ligand halving the initial fluorescence intensity)
[7] = HoblOBP3, at the ligand concentration 24 µM, protein and 1-NPN both 2 µM
[8] = HoblOBP4, at the ligand concentration 24 µM, protein and 1-NPN both 2 µM
[9] = HoblOBP4, dash = IC50 exceeded 50 µM, read-out: IC50 (dash)
[10] = HoblOBP4, dash = ligand whose IC50 exceeded 50 µM, Ki not given, read-out: Ki (dash)
[11] = pH 7.4, read-out: Int (fluorescence intensity as percent of the initial fluorescence)

Sequence of HoblOBP4 (G9BWQ8 entry or part of it): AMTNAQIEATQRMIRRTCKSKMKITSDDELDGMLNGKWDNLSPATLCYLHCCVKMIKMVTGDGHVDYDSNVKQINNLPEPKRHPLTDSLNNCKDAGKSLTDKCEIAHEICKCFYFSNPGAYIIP
Sequence of HoblOBP3 (G9BWQ7 entry or part of it): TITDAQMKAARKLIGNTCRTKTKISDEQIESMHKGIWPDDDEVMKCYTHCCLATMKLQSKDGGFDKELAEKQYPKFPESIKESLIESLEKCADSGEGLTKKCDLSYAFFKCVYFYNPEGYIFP

| SMILES | IC50 (HoblOBP3) [µM] | Ki (HoblOBP3) [µM] | activity at 24 µM (HoblOBP3; [1]) [%] | IC50 (HoblOBP4) [µM] | Ki (HoblOBP4) [µM] | activity at 24 µM (HoblOBP4; [2]) [%] | IC50 (HoblOBP3; [3]) [µM] | Ki (HoblOBP3; [4]) [µM] | Ki (HoblOBP4; [5]) [µM] | IC50 (HoblOBP4; [6]) [µM] | Int (fluorescence intensity as percent of the initial fluorescence) (HoblOBP3; [7]) [%] | Int (fluorescence intensity as percent of the initial fluorescence) (HoblOBP4; [8]) [%] | IC50 (HoblOBP4; [9]) [µM] | Ki (HoblOBP4; [10]) [µM] | activity at 24 µM (HoblOBP3; [11]) [%] | activity at 24 µM (HoblOBP4; [11]) [%] |
| --- | --- | --- | --- | --- | --- | --- | --- | --- | --- | --- | --- | --- | --- | --- | --- | --- |
| CCCCCCC [Heptane] | > 50 | > 50 | 63 | 16 | 11.8 | 43 | – | – | – | – | – | – | – | – | – | – |
| CCCCCCOC(=O)c1ccccc1 [Hexyl benzoate] | – | – | 53 | – | – | 36 | > 50 | > 50 | 2.9 | 4 | – | – | – | – | – | – |
| CC[C@H](C)[C@H](N)C(=O)OC [L-Isoleucine methyl ester] | – | – | 68 | – | – | 49 | > 50 | > 50 | 17.7 | 24 | – | – | – | – | – | – |
| CCOC(=O)[C@@H]1CCCN1 [L-Proline ethyl ester] | – | – | – | – | – | – | > 50 | > 50 | 14.7 | 20 | 70 | 47 | – | – | – | – |
| C=C(C)C1CC=C(C)CC1 (centres unmarked) [Limonene] | > 50 | > 50 | 56 | > 50 | > 50 | 52 | – | – | – | – | – | – | – | – | – | – |
| CC(C)[C@@H]1CC[C@@H](C)C[C@H]1OC(=O)c1ccccc1O [Menthyl salicylate] | – | – | – | – | – | – | > 50 | > 50 | – | – | 75 | 54 | > 50 | > 50 | – | – |
| C=CC(=C)CCC=C(C)C [Myrcene] | – | – | 74 | – | – | 56 | > 50 | > 50 | – | – | – | – | > 50 | > 50 | – | – |
| CCCCCCCCC [Nonane] | – | – | – | – | – | – | > 50 | > 50 | – | – | – | – | > 50 | > 50 | – | – |
| CCCCCCCC [Octane] | – | – | – | – | – | – | > 50 | > 50 | 18.4 | 25 | – | – | – | – | 70 | 51 |
| OCCc1ccccc1 [Phenethyl alcohol] | – | – | 66 | – | – | 52 | > 50 | > 50 | 20.6 | 28 | – | – | – | – | – | – |
| CCCOC(=O)c1ccccc1 [Propyl benzoate] | – | – | 81 | – | – | 48 | > 50 | > 50 | 14.7 | 20 | – | – | – | – | – | – |
| CC1=CCC(O)(C(C)C)CC1 (centres unmarked) [Terpinen-4-ol] | > 50 | > 50 | – | 21 | 15.4 | – | – | – | – | – | – | – | – | – | 75 | 48 |
| CCC/C=C\CO [cis-2-Hexen-1-ol] | > 50 | > 50 | 70 | 14 | 10.3 | 42 | – | – | – | – | – | – | – | – | – | – |
| CC/C=C\CCO [cis-3-Hexen-1-ol] | > 50 | > 50 | – | 17 | 12.5 | – | – | – | – | – | – | – | – | – | 81 | 46 |
| CCC/C=C/C=O [trans-2-Hexenal] | > 50 | > 50 | – | 11 | 8.1 | – | – | – | – | – | – | – | – | – | 74 | 39 |
| CC(=O)/C=C/C1C(C)=CCCC1(C)C (stereo not drawn) [α-Ionone] | 16 | 10.4 | – | 19 | 14 | – | – | – | – | – | – | – | – | – | 41 | 45 |
| C=C1CC/C=C(\C)CC[C@@H]2[C@@H]1CC2(C)C [β-Caryophyllene] | > 50 | > 50 | – | > 50 | > 50 | – | – | – | – | – | – | – | – | – | – | – |
